Literature values, collected in patent publication US20020068365A1, “CONTROLLED RELEASE NITRIC OXIDE PRODUCING AGENTS” (priority 1998, published 2002).

Tests used:
[1] = L-arginine free base
[2] = 30 grams of L-arginine as an infusion

In the case of `N=C(N)NCCC[C@H](N)C(=O)O` [L-arginine], the pH range [1] is given as 10.5-12.0 and the “rise of circulating levels of L-arginine compared to baseline levels” value [2] is given as “up to 100 fold”.
